Literature values in patent US10927398B2, “Compositions for CYP450 phenotyping using saliva samples” (Concordia University, Inc., priority 2015, dated 2021).
Like-named read-outs stand apart in the source and are kept apart here.

Experiments:
[1] = cited from earlier work
[2] = cited from earlier work; remark: listed apart in the source
plasma protein = conditions: cited from earlier work
[3] = Table of Exemplary Drugs, CYP2D6
[4] = Table of Exemplary Drugs, CYP3A4
[5] = Table of Exemplary Drugs, CYP2C9
[6] = Table of Exemplary Drugs, CYP2C19
[7] = Table of Exemplary Drugs, CYP1A2

CN1C[C@H](C(=O)N[C@]2(C)O[C@@]3(O)[C@@H]4CCCN4C(=O)[C@H](Cc4ccccc4)N3C2=O)C[C@@H]2c3cccc4[nH]cc(c34)C[C@H]21 [Dihydroergotamine]
ORAL BIOAVAILABILITY ([1]; in vivo, po): <32% | HALF-LIFE ([2]; in vivo): 9 to 10 h | PLASMA PROTEIN BINDING (plasma protein; plasma): 93%

COc1ccc2c3c1O[C@H]1C(=O)CC[C@H]4[C@@H](C2)N(C)CC[C@]314 [Hydrocodone]
ORAL BIOAVAILABILITY ([1]; in vivo, po): 25% | HALF-LIFE ([2]; in vivo): 7 to 9 h | PLASMA PROTEIN BINDING (plasma protein; [3]): 19-45% ^

CC[C@H]1OC(=O)[C@H](C)[C@@H](O[C@H]2C[C@@](C)(OC)[C@@H](O)[C@H](C)O2)[C@H](C)[C@@H](O[C@@H]2O[C@H](C)C[C@H](N(C)C)[C@H]2O)[C@](C)(OC)C[C@@H](C)C(=O)[C@H](C)[C@@H](O)[C@]1(C)O [Clarithromycin (Biaxin), Clarithromycin]
ORAL BIOAVAILABILITY [1, 4]: 55% | HALF-LIFE [2, 4]: 4 h | PLASMA PROTEIN BINDING (plasma protein; [4]): Low

CC(CN1c2ccccc2Sc2ccccc21)N(C)C (stereo not drawn) [Promethazine]
ORAL BIOAVAILABILITY [1, 3]: 88% | HALF-LIFE [2, 3]: 16 to 19 h | PLASMA PROTEIN BINDING (plasma protein; [3]): 93%

CN(C)CCCN1c2ccccc2Sc2ccc(Cl)cc21 [Chlorpromazine]
ORAL BIOAVAILABILITY [1, 3]: 32% | HALF-LIFE [2, 3]: 6 h | PLASMA PROTEIN BINDING (plasma protein; [3]): 90-99% ^

CC(C)C[C@H]1C(=O)N2CCC[C@H]2[C@]2(O)O[C@](NC(=O)[C@@H]3C=C4c5cccc6[nH]c(Br)c(c56)C[C@H]4N(C)C3)(C(C)C)C(=O)N12 [Bromocriptine (Parlodel), Bromocriptine]
ORAL BIOAVAILABILITY [1, 4]: 65-95% | HALF-LIFE [2, 4]: 6 to 20 h | PLASMA PROTEIN BINDING (plasma protein; [4]): 90-96% ^

Cc1cccc(Nc2ccncc2S(=O)(=O)NC(=O)NC(C)C)c1 [Torasemide]
ORAL BIOAVAILABILITY [1, 5]: 80% | HALF-LIFE [2, 5]: 2.2 to 3.8 h | PLASMA PROTEIN BINDING (plasma protein; [5]): >99%

CCC1=C(C)CN(C(=O)NCCc2ccc(S(=O)(=O)NC(=O)N[C@H]3CC[C@H](C)CC3)cc2)C1=O [Glimepiride]
ORAL BIOAVAILABILITY [1, 5]: 100% | HALF-LIFE [2, 5]: 5 to 9.2 h | PLASMA PROTEIN BINDING (plasma protein; [5]): >99%

CN(C)CCCC1(c2ccc(F)cc2)OCc2cc(C#N)ccc21 (stereo not drawn) [Citalopram]
ORAL BIOAVAILABILITY [1, 6]: 80% | HALF-LIFE [2, 6]: 35 h | PLASMA PROTEIN BINDING (plasma protein; [6]): 80%

CCOc1cc(CC(=O)N[C@@H](CC(C)C)c2ccccc2N2CCCCC2)ccc1C(=O)O [Repaglinide (Prandin), Repaglinide]
ORAL BIOAVAILABILITY [1, 4]: 56% | HALF-LIFE [2, 4]: 1 h | PLASMA PROTEIN BINDING (plasma protein; [4]): >98%

C[C@]12CC[C@@H]3c4ccc(O)cc4CC[C@H]3[C@@H]1CC[C@@H]2O [Estradiol]
ORAL BIOAVAILABILITY [1, 7]: 43% | HALF-LIFE [2, 7]: 36 h | PLASMA PROTEIN BINDING (plasma protein; [7]): >95%

CN(C)CCC=C1c2ccccc2C=Cc2ccccc21 [Cyclobenzaprine]
ORAL BIOAVAILABILITY [1, 7]: 33-55% | HALF-LIFE [2, 7]: 8 to 37 h | PLASMA PROTEIN BINDING (plasma protein; [7]): 93%

CO[C@H]1C[C@@H]2CC[C@@H](C)[C@@](O)(O2)C(=O)C(=O)N2CCCC[C@H]2C(=O)O[C@H]([C@H](C)C[C@@H]2CC[C@@H](O)[C@H](OC)C2)CC(=O)[C@H](C)/C=C(\C)[C@@H](O)[C@@H](OC)C(=O)[C@H](C)C[C@H](C)/C=C/C=C/C=C/1C [Sirolimus (Rapamune), Sirolimus]
ORAL BIOAVAILABILITY [1, 4]: 14-27% | HALF-LIFE [2, 4]: 61.3 to 72.3 h | PLASMA PROTEIN BINDING (plasma protein; [4]): 92%

CCN[C@@H](C)Cc1cccc(C(F)(F)F)c1 [Dexfenfluramine]
ORAL BIOAVAILABILITY ([1]; in vivo, po): 68% | HALF-LIFE ([2]; in vivo): 17 to 20 h | PLASMA PROTEIN BINDING (plasma protein; [3]): 36%

CC[C@H]1OC(=O)[C@H](C)[C@@H](O[C@H]2C[C@@](C)(OC)[C@@H](O)[C@H](C)O2)[C@H](C)[C@@H](O[C@@H]2O[C@H](C)C[C@H](N(C)C)[C@H]2O)[C@](C)(O)C[C@@H](C)C(=O)[C@H](C)[C@@H](O)[C@]1(C)O [Erythromycin]
ORAL BIOAVAILABILITY [1, 4]: 30-65% | HALF-LIFE [2, 4]: 1 to 1.5 h | PLASMA PROTEIN BINDING (plasma protein; [4]): 90%

Cc1ncc2n1-c1ccc(Cl)cc1C(c1ccccc1F)=NC2 [Midazolam (Versed), Midazolam]
ORAL BIOAVAILABILITY ([1]; in vivo, po): PO: 36% | HALF-LIFE ([2]; in vivo): 3 to 6 h | PLASMA PROTEIN BINDING (plasma protein; [4]): 97%

COc1cccc(C2(O)CCCCC2CN(C)C)c1 (stereo not drawn) [Tramadol]
ORAL BIOAVAILABILITY [1, 3]: 75% | HALF-LIFE ([2]; in vivo): 5.6 to 5.7 h | PLASMA PROTEIN BINDING (plasma protein; [3]): 20%

C#C[C@]1(O)CC[C@H]2[C@@H]3CCc4cc(O)ccc4[C@H]3CC[C@@]21C [Ethinyl Estradiol]
ORAL BIOAVAILABILITY [1, 4]: 38-48% | HALF-LIFE [2, 4]: 7 to 36 h | PLASMA PROTEIN BINDING (plasma protein; [4]): 97-98% ^

Clc1ccc2c(c1)C(c1ccccc1)=NCc1nncn1-2 [Estazolam (ProSom), Estazolam]
ORAL BIOAVAILABILITY [1, 4]: 93% | HALF-LIFE [2, 4]: 10 to 24 h | PLASMA PROTEIN BINDING (plasma protein; [4]): 93%

Cc1ccnc2c1NC(=O)c1cccnc1N2C1CC1 [Nevirapine (Viramune), Nevirapine]
ORAL BIOAVAILABILITY [1, 4]: 80-94% | HALF-LIFE [2, 4]: 25 to 45 h | PLASMA PROTEIN BINDING (plasma protein; [4]): 60%
